Tests used:
[1] = UV protection factor UPF of cotton fabric after laundry aftertreatment in final rinse bath; details: in Lenor care conditioner 1000 ppm, dried white cotton fabric, AS/NZS 4399:1996
Protocol: The UV protection factor UPF of textiles is determined in accordance with the Australian/New Zealand standard AS/NZS 4399:1996 using an in vitro method. It measures the UV transmission of the textile object. The spectral transmission can be used to determine the protection factor directly using the following equation: [formula] where • Sλ=spectral irradiation of the sun in the UV region at the wavelength λ • Eλ=spectral erythema action of the UV radiation at the wavelength λ • Tλ=spectral transmission of the textile object at the wavelength λ.
White woven cotton fabric having a basis weight of 100 g/mm^2 [sic] and a UV protection factor UPF of 4.50 was washed using a water hardness of 3 mmol/l. The laundering process was a main wash cycle at 40° C. with a commercially available laundry detergent (Ariel® Color) and a subsequent conditioning rinse. The conditioner used was a commercially available formulation (Lenor® care) in a dosage of 1000 ppm, based on the liquor. […] After the conditioning rinse cycle, the fabric was removed and its UV protection factor UPF was determined in the dried state.

[2] = Photostability of dyed cotton fabric after conditioning rinse (SUNTEST exposure, K/S values); details: 200 ppm based on the liquor; 14 hours SUNTEST exposure under outdoor conditions; K/S at maximum of K/S spectra; higher = higher photostability
Protocol: Woven cotton fabric dyed with Reactive Black 5 to ⅓ standard depth of shade was treated in the conditioning rinse cycle with a commercially available formulation (Lenor® care, 1000 ppm based on the liquor) in the presence of an inventive UV absorber mixture M1, M2, M3, M4, M5, M6 or M7 (each at 200 ppm based on the liquor) in a liquor ratio of 12.5:1. After the conditioning rinse cycle, the dyed fabric was removed and tested for photostability in the dried state.
The samples were exposed in a SUNTEST® tabletop accelerated lighting unit (from Heraeus, Hanau) for 14 hours under outdoor conditions. A spectrophotometer incl. an integration sphere (“Lambda 900” from Perkin Elmer) was used to measure the reflectance spectra of dyeings before and after exposure. These reflectance spectra were converted in line with the Kubelka-Munk theory into K/S spectra (K=absorption coefficient, S=scattering coefficient). The photostabilities are evaluated with reference to the K/S values after 14 hour exposure relative to the K/S values prior to exposure (K/S in each case at the maximum of the K/S spectra). The higher the value in % reported in Table 2, the higher the photostability.

SMILES: CCCCC(CC)COC(=O)C(C#N)=C(c1ccccc1)c1ccccc1 (stereo not shown) [Mixture A1, 2-ethylhexyl 2-cyano-3,3-diphenylacrylate]
- UPF with 50 ppm ([1]; 50 ppm UV absorber based on the liquor): 8.6
- UPF with 100 ppm ([1]; 100 ppm UV absorber based on the liquor): 13.5
- UPF with 200 ppm ([1]; 200 ppm UV absorber based on the liquor): 21.1
- K/S (14 h)/K/S (0 h) × 100% [2]: 67.7%

From patent US7011772B2, “UV absorbing mixture with textile fiber affinity” (BASF Aktiengesellschaft, priority 2000, dated 2006)
